Experimental data: US20180296559A1, “TREATMENT OF AIRWAY SMOOTH MUSCLE DYSFUNCTION” (priority 2016, published 2018)

Legend:
[1] = tested on: wild-type mice; assay: In vivo airway resistance following methacholine challenge; details: 100 μl of 5 mM, intraperitoneal, daily for 3 days, vs vehicle
Experimental: FIG. 3. In vivo treatment with NVP-TAE684 decreases cholinergic induced airway hyper-responsiveness. Mice were pretreated with control vehicle (DMSO, black circles) or NVP-TAE684 (grey circles) for 3 days (n=10 animals per group). Airway resistance following methacholine treatment was then determined. Data are shown as mean values with SEM and are fitted with a four-parameter logistic regression algorithm (solid line).
Measurement of in vivo airway resistance. WT mice were pretreated with either PYK2 inhibitor NVP-TAE684 (100 μl of 5 mM, 1% DMSO) or vehicle (1% DMSO) was given via intra-peritoneal injections daily for 3 days prior and including the day of pulmonary measurements. Mice were anesthetized with ketamine (50 or 100 mg/kg) and xylazine (0-10 mg/kg). Following tracheotomy, an 18-gauge cannula was inserted and securely tied with 4.0 braided silk. The animals were then mechanically ventilated with a computer-controlled small-animal ventilator (FlexiVent, SCIREQ, Montreal, Quebec) using a tidal volume of 8 mL/kg at a rate of 180 breaths/min and PEEP of 3.5 cm H2O. Pulmonary resistance was measured by the computer controlled ventilator by interrupting ventilation and imposing broadband low-frequency oscillatory waveforms and then resuming ventilation. […]

[2] = tested on: tracheal airway smooth muscle strips; assay: Airway smooth muscle strip isometric force generation following acetylcholine; assay type: cell-based, pig
Description: FIG. 2. NVP-TAE684 decreases airway smooth muscle force generation. Wild-type airway smooth muscle strip isometric force generation following acetylecholine treatment in muscle strips pretreated with control vehicle (DMSO, black circles) or NVP-TAE684 (grey circles) (n=5 animals per group). Data are shown as mean values with SEM and are fitted with a four-parameter logistic regression algorithm (solid line).
Airway smooth muscle tissue and cells. Trachea from newborn WT […] or CFTR^−/− pigs was excised and placed in modified Krebs Solution containing (mM): 120.8 NaCl, 5.9 KCl, 0.2 CaCl2, 1.2 MgCl2, 1.2 NaH2PO4, 2 NaHCO3, 11 d-glucose, and 10 HEPES, pH 7.4. The trachealis muscle was dissected by removing the cartilage and epithelial layers. For force measurements, strips of trachealis smooth muscle were hung in a tissue perfusion system (Radnoti LLC, Monrovia, Calif.). For cell isolation, the remaining medial layers were minced and digested using a papain dissociation system (Worthington, Lakewood, N.J.) based upon previous studies (10). The minced smooth muscle was suspended in Earle's balanced salt solution (EBSS) containing papain (10 U/ml) and DNase (1000 U/ml) and incubated at 37° C. for 1 hr. Collagenase (0.5mg/m1) was added and after 1 hr the mixture triturated. Primary cells were grown to confluence in a 1:1 mixture of DMEM and Ham's F12 on fibrinogen-coated 6-well plates. All solutions contained 100 U/ml penicillin and 0.1 mg/ml streptomycin. Primary culture cells were allowed to grow for 8-10 d until confluent. […]
Measurement of airway smooth muscle force generation. […] The contractile activity was recorded with Grass isometric force transducers and amplifiers connected to a Biopac data acquisition system (Biopac Systems, Goleta, Calif.). […] The smooth muscle force from NVP-TAE684 or DMSO pretreated strips was determined by obtaining concentration-response curves to acetylcholine (10^−9 to 10^−2 M) in the muscle bath. […]

[3] = tested on: wild-type mice; assay: Morphologic analysis of histological sections of treated mice; assay type: in vivo
[4] = tested on: porcine precision cut lung slices; assay: Airway contraction in precision cut lung slices in response to methacholine; assay type: cell-based; details: WT newborn pig lung slices pretreated overnight with 10 μM compound vs DMSO
Description: FIG. 1. NVP-TAE684 decreases airway contraction in porcine precision cut lung slices. Percent airway lumen area contraction in response to methacholine in porcine precision cut lung slices pretreated with control vehicle (DMSO, black circles) or NVP-TAE684 (grey circles), normalized to maximal contractile response (n=6 animals per group). Data are shown as mean values with SEM and are fitted with a four-parameter logistic regression algorithm (solid line).
Precision cut lung slice preparation. Precision cut lung slices were isolated as previously described (11) from wild type newborn pigs. Lung slice culture media consisted of Dulbecco's Modified Eagle Medium (Gibco, Big Cabin, Okla.), 10% fetal bovine serum (Gibco, Big Cabin, Okla.), 1% penicillin-streptomycin (5,000 U/mL, Gibco, Big Cabin, Okla.), and 0.1% gentamicin (50 mg/mL, Gibco, Big Cabin, Okla.).
For the porcine lung slice studies, the tracheal bronchus from collected tracheal lobes was cannulated with a 24 G IV catheter (BD Medical) and a tight seal was created using suture. The tracheal lobe was instilled with approximately 10 mL of 2% UltraPure Low Melting Point agarose (Invitrogen, Carlsbad, Calif.) solution and cooled at −20° C. for 30 min. […] For all PCLS experiments, maximal airway contraction was analyzed for each dose by lumen area measurements performed in ImageJ (NIH). […]

[5] = biological target: Recombinant human PYK2 (Homo sapiens, UniProt Q14289); assay: ADP-based phosphatase-coupled kinase assay (malachite green); assay type: biochemical; details: 10, 25, or 100 μM compound vs DMSO; PYK2 0.5 and 2 μg/ml
Recombinant human PYK2, sequence (Q14289 whole entry): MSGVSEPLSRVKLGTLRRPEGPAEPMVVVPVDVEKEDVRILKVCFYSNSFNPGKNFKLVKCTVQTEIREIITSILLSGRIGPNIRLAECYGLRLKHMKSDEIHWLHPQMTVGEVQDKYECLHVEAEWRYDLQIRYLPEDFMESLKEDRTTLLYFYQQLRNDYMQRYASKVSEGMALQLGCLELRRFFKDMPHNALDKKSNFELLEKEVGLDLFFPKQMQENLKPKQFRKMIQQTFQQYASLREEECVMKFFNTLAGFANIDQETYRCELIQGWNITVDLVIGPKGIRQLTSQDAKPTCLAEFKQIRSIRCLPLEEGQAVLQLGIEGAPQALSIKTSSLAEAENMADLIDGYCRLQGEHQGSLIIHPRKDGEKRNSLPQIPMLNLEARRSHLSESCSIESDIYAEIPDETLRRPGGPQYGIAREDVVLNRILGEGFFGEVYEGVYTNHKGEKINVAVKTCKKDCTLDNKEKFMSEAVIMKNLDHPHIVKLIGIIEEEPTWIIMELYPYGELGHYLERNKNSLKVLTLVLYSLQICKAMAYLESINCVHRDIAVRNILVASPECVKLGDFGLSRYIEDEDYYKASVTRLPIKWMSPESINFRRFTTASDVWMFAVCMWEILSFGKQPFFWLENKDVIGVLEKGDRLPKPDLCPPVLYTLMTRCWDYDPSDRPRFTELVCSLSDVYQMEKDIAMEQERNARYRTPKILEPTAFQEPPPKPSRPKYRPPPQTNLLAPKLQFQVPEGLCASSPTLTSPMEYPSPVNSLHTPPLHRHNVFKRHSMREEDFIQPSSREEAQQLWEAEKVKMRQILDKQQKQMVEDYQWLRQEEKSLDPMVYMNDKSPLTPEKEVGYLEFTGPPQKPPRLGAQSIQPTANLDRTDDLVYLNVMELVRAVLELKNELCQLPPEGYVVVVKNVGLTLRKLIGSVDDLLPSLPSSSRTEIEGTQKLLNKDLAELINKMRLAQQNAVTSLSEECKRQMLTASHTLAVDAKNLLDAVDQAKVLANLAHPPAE
Experimental: FIG. 4. Recombinant human PYK2 was treated with either DMSO or 10, 25, or 100 μM ceritinib. PYK2 activity was measured by using an ADP-based phosphatase-coupled kinase assay. ADP from PYK2 activity releases an inorganic phosphate via a coupling enzyme and is detected using malachite green reagent. The amount of inorganic phosphate released is proportional to the amount of ADP generated during the kinase reaction. Two concentrations of PYK2 (0.5 and 2 μg/ml) were tested.

[6] = pretreated with 10 μM compound vs DMSO

SMILES | respiratory response to inhaled methacholine (airway resistance) [1] | maximal force production ([2]; newborn WT pig tracheal muscle strips pretreated with 10 μM compound, acetylcholine dose response) | force generation in tracheal smooth muscle strips across all doses of acetylcholine [2, 6] | median effective concentrations of acetylcholine, compound-pretreated vs DMSO-pretreated strips [2, 6] | drug-induced toxicity in histological sections of heart, kidney, and liver ([3]; mouse, in vivo) | changes in epithelia, cartilage or airway smooth muscle layers (lung parenchyma, conducting airways, trachea sections) ([3]; treated mice vs vehicle control mice) | airway narrowing in response to increasing dosages of methacholine, measured by luminal area [4] | PYK-2 activity [5]
COc1cc(N2CCC(N3CCN(C)CC3)CC2)ccc1Nc1ncc(Cl)c(Nc2ccccc2S(=O)(=O)C(C)C)n1 [NVP-TAE684] | significantly decreased | 40 mN | decreased force generation | no significant differences | no evidence of drug-induced toxicity | no significant changes | decreased the airway narrowing | 
Cc1cc(Nc2ncc(Cl)c(Nc3ccccc3S(=O)(=O)C(C)C)n2)c(OC(C)C)cc1C1CCNCC1 [ceritinib] |  |  |  |  |  |  |  | dose-dependent decrease
